According to patent US7592373B2 (Boehringer Ingelheim International GmbH, priority 2003, dated 2009):

| melting point [°C] | SMILES |
| --- | --- |
| 217 to 218 | O=C(C#Cc1ccc(CCN2CCCC2)cc1)Nc1ccc(-c2ccc(Cl)cc2)cc1 [Example 2.4, 3-[4-(2-pyrrolidin-1-ylethyl)phenyl]propynoic acid-(4′-chlorobiphenyl-4-yl)amide] |
| 198 to 199 | CC#Cc1ccc(NC(=O)C#Cc2ccc(CCN3CCCC3)cc2)cc1 [Example 2.5, 3-[4-(2-pyrrolidin-1-ylethyl)phenyl]propynoic acid-(4-prop-1-ynylphenyl)amide] |
| 107 to 109 | CCN(CC)CCOc1ccc(NC(=O)C#Cc2ccc(Cl)cc2Cl)cc1 [Example 3.4, 3-(2,4-dichlorophenyl)propynoic acid-[4-(2-diethylaminoethoxy)phenyl]amide] |
| 182 to 185 | CN1CCN(Cc2ccc(NC(=O)C#Cc3ccc(-c4ccc(Cl)cc4)cc3)cc2)CC1 [Example 3.8, 3-(4′-chlorobiphenyl-4-yl)propynoic acid-[4-(4-methylpiperazin-1-ylmethyl)phenyl]amide] |
| 158 to 163 | CC1CCCC(C)N1Cc1ccc(NC(=O)C#Cc2ccc(-c3ccc(Cl)cc3)cc2)cc1 (stereo not drawn) [Example 3.9, 3-(4′-chlorobiphenyl-4-yl)propynoic acid-[4-(2,6-dimethylpiperidin-1-ylmethyl)phenyl]amide] |
| 130 to 133 | COCCN(C)Cc1ccc(NC(=O)C#Cc2ccc(-c3ccc(Cl)cc3)cc2)cc1 [Example 3.11, 3-(4′-chlorobiphenyl-4-yl)propynoic acid-(4-{[(2-methoxyethyl)methylamino]methyl}phenyl)amide] |
| 209 to 214 | CC1CC(C)CN(Cc2ccc(NC(=O)C#Cc3ccc(-c4ccc(Cl)cc4)cc3)cc2)C1 (stereo not drawn) [Example 3.12, 3-(4′-chlorobiphenyl-4-yl)propynoic acid-[4-(3,5-dimethylpiperidin-1-ylmethyl)phenyl]amide] |
| 227 to 234 | COC1CCN(Cc2ccc(NC(=O)C#Cc3ccc(-c4ccc(Cl)cc4)cc3)cc2)CC1 [Example 3.13, 3-(4′-chlorobiphenyl-4-yl)propynoic acid-[4-(4-methoxypiperidin-1-ylmethyl)phenyl]amide] |
| 263 to 268 | CC1CCN(Cc2ccc(NC(=O)C#Cc3ccc(-c4ccc(Cl)cc4)cc3)cc2)CC1 [Example 3.14, 3-(4′-chlorobiphenyl-4-yl)propynoic acid-[4-(4-methylpiperidin-1-ylmethyl)phenyl]amide] |
| 164 to 167 | CN(Cc1ccc(NC(=O)C#Cc2ccc(-c3ccc(Cl)cc3)cc2)cc1)CC1CC1 [Example 3.15, 3-(4′-chlorobiphenyl-4-yl)propynoic acid-{4-[(cyclopropylmethylmethylamino)methyl]phenyl}amide] |
| 194 to 200 | O=C(C#Cc1ccc(-c2ccc(Cl)cc2)cc1)Nc1ccc(CN2CCC(O)(C(F)(F)F)CC2)cc1 [Example 3.17, 3-(4′-chlorobiphenyl-4-yl)propynoic acid-[4-(4-hydroxy-4-trifluoromethylpiperidin-1-ylmethyl)phenyl]amide] |
| 243 to 247 | O=C(C#Cc1ccc(-c2ccc(Cl)cc2)cc1)Nc1ccc(CN2CCC(O)CC2)cc1 [Example 3.18, 3-(4′-chlorobiphenyl-4-yl)propynoic acid-[4-(4-hydroxy-1-piperidin-1-ylmethyl)phenyl]amide] |
| 224 to 227 | O=C(C#Cc1ccc(-c2ccc(Cl)cc2)cc1)Nc1ccc2c(ccn2CCN2CCCC2)c1 [Example 3.19, 3-(4′-chlorobiphenyl-4-yl)propynoic acid-[1-(2-pyrrolidin-1-ylethyl)-1H-indol-5-yl]amide] |
| 277 to 281 | O=C(C#Cc1ccc(-c2ccc(Cl)cc2)cc1)Nc1ccc(CN2CCCCC2)c(Cl)c1 [Example 3.20, 3-(4′-chlorobiphenyl-4-yl)propynoic acid-(3-chloro-4-piperidin-1-ylmethylphenyl)amide] |
| 195 to 197 | CC1CC(C)CN(Cc2ccc(NC(=O)C#Cc3ccc(-c4ccc(Cl)cc4)cn3)cc2)C1 (stereo not drawn) [Example 3.29, 3-[5-(4-chlorophenyl)pyridin-2-yl]propynoic acid-[4-(3,5-dimethylpiperidin-1-ylmethyl)phenyl]amide] |
| 145 to 150 | CCN(CC)CCc1ccc(NC(=O)C#Cc2ccc(C(F)(F)F)cc2Cl)cc1 [Example 3.35, 3-(2-chloro-4-trifluoromethylphenyl)propynoic acid-[4-(2-diethylaminoethyl)phenyl]amide] |
| 194 to 197 | CCN(CC)CCOc1ccc(NC(=O)C#Cc2ccc(C(F)(F)F)cc2Cl)cc1 [Example 3.38, 3-(2-chloro-4-trifluoromethylphenyl)propynoic acid-[4-(2-diethylaminoethoxy)phenyl]amide] |
| 135 to 138 | CCN(CC)CCOc1ccc(N(C)C(=O)C#Cc2ccc(C(F)(F)F)cc2Cl)cc1 [Example 3.39] |
| 120 to 125 | O=C(C#Cc1ccc(C(F)(F)F)cc1Cl)Nc1ccc(OCCn2cccn2)cc1 [Example 3.43, 3-(2-chloro-4-trifluoromethylphenyl)propynoic acid-[4-(2-pyrazol-1-ylethoxy)phenyl]amide] |
| 223 to 227 | O=C(C#Cc1ccc(C(F)(F)F)cc1Cl)Nc1ccc(OCCn2cnnc2)cc1 [Example 3.44, 3-(2-chloro-4-trifluoromethylphenyl)propynoic acid-[4-(2-[1.2.4]triazol-4-ylethoxy)phenyl]amide] |
| 186 to 190 | O=C(C#Cc1ccc(-c2ccc(Cl)cc2)cn1)Nc1ccc(CN2CCC(O)CC2)cc1 [Example 3.168, 3-[5-(4-chlorophenyl)pyridin-2-yl]propynoic acid-[4-(4-hydroxypiperidin-1-ylmethyl)phenyl]amide] |
| 98 to 100 | CCN(CC)CCOc1ccc(NC(=O)C#Cc2ccc(Cl)cc2Cl)cc1Cl [Example 4.1, 3-(2,4-dichlorophenyl)propynoic acid-[3-chloro-4-(2-diethylaminoethoxy)phenyl]amide] |
| 105 to 108 | CCN(CC)CCOc1ccc(NC(=O)C#Cc2ccc(-c3ccccc3)cc2)cc1Cl [Example 4.4, 3-biphenyl-4-ylpropynoic acid-[3-chloro-4-(2-diethylaminoethoxy)phenyl]amide] |
| 135 to 144 | O=C(C#Cc1ccc(Cl)cc1)Nc1ccc2c(ccn2CCN2CCCC2)c1 [Example 4.9, 3-(4-chlorophenyl)propynoic acid-[1-(2-pyrrolidin-1-ylethyl)-1H-indol-5-yl]amide] |
| 200 to 205 | O=C(C#Cc1ccc(C(F)(F)F)cc1Cl)Nc1ccc2c(ccn2CCN2CCCC2)c1 [Example 4.11, 3-(2-chloro-4-trifluoromethylphenyl)propynoic acid-[1-(2-pyrrolidin-1-ylethyl)-1H-indol-5-yl]amide] |
| 130 | O=C(C#Cc1ccc(Cl)cc1Cl)Nc1ccc2oc(CCN3CCCC3)nc2c1 [Example 4.12, 3-(2,4-dichlorophenyl)propynoic acid-[2-(2-pyrrolidin-1-ylethyl)benzoxazol-5-yl]amide] |
| 127 to 130 | CCN(CC)CCOc1ccc(NC(=O)C#Cc2ccc(C(F)(F)F)cc2Cl)cc1N [Example 4.22, 3-(2-chloro-4-trifluoromethylphenyl)propynoic acid-[3-amino-4-(2-diethylaminoethoxy)phenyl]amide] |
